Results as given in patent publication US20120165325A1, “Stable forms of N-(2,6-Dimethyl-4-morpholin-4-yl-phenyl)-3,3-dimethyl-butyramide” (H. Lundbeck A/S, priority 2009, published 2012).
Blank lines part the entries; values can stand above or below the compound they belong to.

What was measured:
Male NMRI mice [1] = assay: Amphetamine sensitisation: inhibition of the sensitised behavioural response to amphetamine; assay type: in vivo, mouse; details: amphetamine-pretreated mice, s.c. 30 min before D-amphetamine challenge 1.25 mg/kg s.c., 30 min test, S.D. in brackets
Protocol: Subjects. […] The animals were housed 6 mice pr cage in a 12-hr light/dark cycle under controlled conditions for regular in-door temperature (21±2° C.) and humidity (55±5%) with food and tap water available ad libitum.
Experimental procedure. […] 5×8 infrared light sources and photocells interspaced by 4 cm monitor the locomotor activity.
Administration of compounds.
Data analyses. […] A therapeutic index value can subsequently be calculated by dividing the first ED50 by the second.

Male Wistar rats [2] = assay: Amphetamine challenge: antagonism of d-amphetamine induced hyperactivity; assay type: in vivo; details: rat; s.c. 30 min before d-amphetamine sulphate 0.5 mg/kg; motility over 2 hours; std. dev. in brackets
Protocol: Subjects. Male Wistar rats (Taconic, Denmark) weighing 170-240 g are used. The animals were housed under a 12-hr light/dark cycle under controlled conditions for regular in-door temperature (21±2° C.) and humidity (55±5%) with food and tap water available ad libitum. Eight rats were used at each dose level and in the parallel control group receiving the vehicle to the test compound plus d-amphetamine and the group receiving vehicle injections only.
Experimental procedure. The experiment was made in normal light conditions in an undisturbed room. The test substance was injected 30 min before s.c. before the injection of d-amphetamine sulphate (0.5 mg/kg). Immediately after injection of d-amphetamine, the rats were placed individually in the test cages that were placed in a U-frame, equipped with 4 infrared light sources and photocells. The light beams crossed the cage 4 cm above the cage floor. Recording of a motility count required interruption of adjacent light beams, thus avoiding counts induced by stationary movements of the rat. Motility (counts) was recorded for a period of 2 hours. The mean motility induced by vehicle (saline) treatment in the absence of d-amphetamine was used as baseline. The 100 percent effect of d-amphetamine was accordingly calculated to be total motility counts minus baseline. The response in groups receiving test compound was thus determined by the total motility counts minus baseline, expressed in percent of the similar result recorded in the parallel amphetamine control group. The percent responses were converted to percent inhibition from which ED50 values were calculated by means of log-probit analyses. In a parallel set of data, the potential sedative properties (motility inhibition) of the test compounds were evaluated using essentially the same procedure with the exception of not administering d-amphetamine-sulphate at the initiation of locomotor assessment.

Male Wistar rats [3] = assay: Motility inhibition (potential sedative properties, without d-amphetamine); assay type: in vivo; details: rat, std. dev. in brackets
Description: Subjects. Male Wistar rats (Taconic, Denmark) weighing 170-240 g are used.
Experimental procedure. […] Recording of a motility count required interruption of adjacent light beams, thus avoiding counts induced by stationary movements of the rat.

Male NMRI mice [4] = assay: Inhibition of baseline motility in vehicle-pretreated, vehicle-challenged mice; assay type: in vivo, mouse; details: 30 min test
Protocol: (§1) Subjects. Male NMRI mice (Charles River) weighing approx. 35 g were used. The animals were housed 6 mice pr cage in a 12-hr light/dark cycle under controlled conditions for regular in-door temperature (21±2° C.) and humidity (55±5%) with food and tap water available ad libitum. 12 mice were used pr experimental group.
Experimental procedure. All mice were pre-treated once daily for five days with either d-amphetamine sulphate (2.5 mg/kg s.c.) or saline (10 ml/kg). For the 17 days between the last day of pre-treatment and the test day, the animals were kept in their home cage receiving the standard care as described above. […] The recording of a motility counted requires interruption of adjacent light beams, thereby avoiding counts induced by stationary movements of the mice. […]
Data analyses. […] That is, the response in amphetamine-sensitized groups receiving test compound was thus determined as the sensitised response minus the baseline motility, expressed in percent of the similar result recorded in the sensitized amphetamine response group. […] Similarly, an ED50 for inhibiting baseline motility was calculated by expressed the motility response in vehicle-pretreated, vehicle-challenged, drug-treated animals relative to the baseline motility response. A therapeutic index value can subsequently be calculated by dividing the first ED50 by the second.

[5] = Solid form stability at 60° C. and 95% relative humidity; assay type: physicochemical; details: relative humidity of 95%
[6] = Intrinsic dissolution rate (37C); assay type: physicochemical
Male NMRI mice [7] = assay: Forced swim test; assay type: in vivo, mouse; details: 30 min before test, last 3 min of 6 min swim, vehicle = 100
Protocol: as §1, with “weighing 23-25” for “weighing approx. 35”, “The mice” for “The animals”, “were kept 8” for “were housed 6”, “libitum. 8” for “libitum. 12”
Experimental procedure. The mice were placed in 2000 ml beaker containing 1200 ml of tempered water (25° C.) and left to swim for 6 min. The performance of the mice was video recorded, digitalized and analysed by means of a digital analysis system (Bioobserve). The time spent immobile for the last 3 min. of the test session was quantified for each mouse.
Treatment. 30 min. before the test, mice were treated s.c. with N-(2,6-dimethyl-4-morpholin-4-yl-phenyl)-3,3-dimethyl-butyramide or vehicle (10-%-2-OH-propyl-cyclodextrin, 10 ml/kg). In addition as positive control, imipramine-HCl (40 mg/kg) and a saline control (10 ml/kg) was included.
Analyses. The time spent immobile was statistically compared across the experimental groups against the relevant control group by means of one-way analysis of variance. A post-hoc test (Student-Newman-Keuls) was employed when appropriate. P-levels <0.05 were considered significant.

- Stability: solid form stable for ([5]; listed as γ): Solid form stable for >14 days at 60 °C
- Intrinsic dissolution rate (37C) ([6]; listed as γ): 0.036 mg//cm^2/min
Compound: Cc1cc(N2CCOCC2)cc(C)c1NC(=O)CC(C)(C)C [γ form, N-[2,6-Dimethyl-4-morpholin-4-yl-phenyl]-3,3-dimethyl-butyramide, γ form]

- Stability: solid form stable for ([5]; listed as β): Solid form stable for >90 days at 60 °C
- Intrinsic dissolution rate (37C) ([6]; listed as β): 0.026 mg//cm^2/min
Compound: Cc1cc(N2CCOCC2)cc(C)c1NC(=O)CC(C)(C)C [β form, N-(2,6-Dimethyl-4-morpholin-4-yl-phenyl)-3,3-dimethyl-butyramide, β form]

Further lines, the compound ahead of its results:

Compound: Lithium-chloride
- Inhibition of amphetamine sensitised response. ED50 (±S.D.) (Male NMRI mice [1]): 34 (7.2) mg/kg
- Amphetamine antagonism ED50 ± std. dev. (Male Wistar rats [2]): 12 (1.7) mg/kg
- Motility inhibition ED50 ± std. dev. (Male Wistar rats [3]): >40 mg/kg
- Inhibition of baseline motility. ED50 (±S.D.) (Male NMRI mice [4]): >>40 mg/kg

Compound: Cc1cc(N2CCOCC2)cc(C)c1NC(=O)CC(C)(C)C [α form, N-(2,6-Dimethyl-4-morpholin-4-yl-phenyl)-3,3-dimethyl-butyramide, α form]
- Stability: solid form stable for ([5]; listed as α): Solid form stable for >90 days at 60 °C
- Intrinsic dissolution rate (37C) ([6]; listed as α): 0.021 mg//cm^2/min

Compound: Cc1cc2c(s1)Nc1ccccc1N=C2N1CCN(C)CC1 [Olanzapine, reference compound]
- ED50 (Male NMRI mice [1]; Mus musculus): 0.11 mg/kg
- ED50 (Male Wistar rats [2]): 0.21 mg/kg
- Immobility in % (±S.D.) (Male NMRI mice [7]; dose 0.31 mg/kg): 96%
- Immobility in % (±S.D.) (Male NMRI mice [7]; dose 1.3 mg/kg): 95%
